Assay results as given in PubChem BioAssay (NCI).
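Abbreviation: GI50, concentration required for 50% inhibition of growth. TGI is the concentration that stops growth completely.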

How the values were obtained:
Assay in all cases: NCI-60 cell line screen, 384-well format
[1] = test system: 786-0 renal
[2] = test system: A498 renal
[3] = test system: A549 NSCLC
[4] = test system: ACHN renal
[5] = test system: BT-549 breast
[6] = test system: CCRF-CEM leukemia
[7] = test system: COLO 205 colon
[8] = test system: DU-145 prostate
[9] = test system: EKVX NSCLC
[10] = test system: HCC-2998 colon
[11] = test system: HCT-15 colon
[12] = test system: HL-60(TB) leukemia
[13] = test system: HOP-62 NSCLC
[14] = test system: HOP-92 NSCLC
[15] = test system: HS 578T breast
[16] = test system: HT29 colon
[17] = test system: K-562 leukemia
[18] = test system: LOX IMVI melanoma
[19] = test system: M14 melanoma
[20] = test system: MALME-3M melanoma
[21] = test system: MDA-MB-231 breast
[22] = test system: MDA-MB-435 melanoma
[23] = test system: MDA-MB-468 breast
[24] = test system: MOLT-4 leukemia
[25] = test system: NCI-H226 lung
[26] = test system: NCI-H23 lung
[27] = test system: NCI-H322M lung
[28] = test system: NCI-H460 NSCLC
[29] = test system: NCI-H522 lung
[30] = test system: NCI/ADR-RES ovarian
[31] = test system: OVCAR-3 ovarian
[32] = test system: OVCAR-4 ovarian
[33] = test system: OVCAR-5 ovarian
[34] = test system: OVCAR-8 ovarian
[35] = test system: PC-3 prostate
[36] = test system: RPMI-8226 leukemia
[37] = test system: RXF 393 renal
[38] = test system: SF-268 CNS
[39] = test system: SF-295 CNS
[40] = test system: SF-539 CNS
[41] = test system: SK-MEL-28 melanoma
[42] = test system: SK-MEL-5 melanoma
[43] = test system: SK-OV-3 ovarian
[44] = test system: SN12C renal
[45] = test system: SNB-19 CNS
[46] = test system: SNB-75 CNS
[47] = test system: SR leukemia
[48] = test system: SW-620 colon
[49] = test system: T-47D breast
[50] = test system: U251 glioblastoma
[51] = test system: UACC-257 melanoma
[52] = test system: UO-31 renal

SMILES: CC(C)[C@]12O[C@H]1[C@@H]1O[C@]13[C@]1(O[C@H]1C[C@H]1C4=C(CC[C@@]13C)C(=O)OC4)[C@@H]2O
- GI50 [1]: < 10 nM
- TGI [1]: 17.7 nM
- GI50 [2]: < 10 nM
- TGI [2]: 27.5 nM
- GI50 [3]: 15 nM
- TGI [3]: > 100 µM
- GI50 [4]: < 10 nM
- TGI [4]: 32.4 nM
- GI50 [5]: < 10 nM
- TGI [5]: < 10 nM
- GI50 [6]: < 10 nM
- TGI [6]: 15.7 nM
- GI50 [7]: < 10 nM
- TGI [7]: 23.3 nM
- GI50 [8]: < 10 nM
- TGI [8]: < 10 nM
- GI50 [9]: 10 nM
- TGI [9]: 30.2 nM
- GI50 [10]: 13.7 nM
- TGI [10]: 31.3 nM
- GI50 [11]: < 10 nM
- TGI [11]: 31.6 nM
- GI50 [12]: < 10 nM
- TGI [12]: < 10 nM
- GI50 [13]: < 10 nM
- TGI [13]: < 10 nM
- GI50 [14]: 12.3 nM
- TGI [14]: 47.7 nM
- GI50 [15]: < 10 nM
- TGI [15]: 18.4 nM
- GI50 [16]: 11.1 nM
- TGI [16]: > 100 µM
- GI50 [17]: < 10 nM
- TGI [17]: 18.8 nM
- GI50 [18]: < 10 nM
- TGI [18]: < 10 nM
- GI50 [19]: 11.7 nM
- TGI [19]: 24.1 nM
- GI50 [20]: < 10 nM
- TGI [20]: 21 nM
- GI50 [21]: < 10 nM
- TGI [21]: 21.7 nM
- GI50 [22]: < 10 nM
- TGI [22]: 18.1 nM
- GI50 [23]: < 10 nM
- TGI [23]: 20.8 nM
- GI50 [24]: < 10 nM
- TGI [24]: < 10 nM
- GI50 [25]: < 10 nM
- TGI [25]: 12.3 nM
- GI50 [26]: < 10 nM
- TGI [26]: < 10 nM
- GI50 [27]: 10.8 nM
- TGI [27]: 31.8 nM
- GI50 [28]: < 10 nM
- TGI [28]: < 10 nM
- GI50 [29]: < 10 nM
- TGI [29]: < 10 nM
- GI50 [30]: < 10 nM
- TGI [30]: 26.1 nM
- GI50 [31]: < 10 nM
- TGI [31]: 12.4 nM
- GI50 [32]: < 10 nM
- TGI [32]: < 10 nM
- GI50 [33]: < 10 nM
- TGI [33]: > 100 µM
- GI50 [34]: 10.6 nM
- TGI [34]: 36.6 nM
- GI50 [35]: 12.3 nM
- TGI [35]: 52 nM
- GI50 [36]: < 10 nM
- TGI [36]: < 10 nM
- GI50 [37]: < 10 nM
- TGI [37]: < 10 nM
- GI50 [38]: 10.2 nM
- TGI [38]: 27.7 nM
- GI50 [39]: < 10 nM
- TGI [39]: 21.3 nM
- GI50 [40]: < 10 nM
- TGI [40]: 15.4 nM
- GI50 [41]: < 10 nM
- TGI [41]: < 10 nM
- GI50 [42]: < 10 nM
- TGI [42]: 12.2 nM
- GI50 [43]: < 10 nM
- TGI [43]: 36.5 nM
- GI50 [44]: < 10 nM
- TGI [44]: 12.4 nM
- GI50 [45]: 21.1 nM
- TGI [45]: > 100 µM
- GI50 [46]: < 10 nM
- TGI [46]: 21.9 nM
- GI50 [47]: < 10 nM
- TGI [47]: < 10 nM
- GI50 [48]: < 10 nM
- TGI [48]: 33.3 nM
- GI50 [49]: < 10 nM
- TGI [49]: 37 nM
- GI50 [50]: 11.3 nM
- TGI [50]: 66 nM
- GI50 [51]: < 10 nM
- TGI [51]: 21.2 nM
- GI50 [52]: 11.4 nM
- TGI [52]: 51.3 nM
